# From US6946447B2, “MDM2-specific antisense oligonucleotides” (Hybridon, Inc., priority 1997, dated 2005)
# Where two headings read alike, the source gives them in different places. Strand notation (5' to 3'): a small letter for the sugar, then the base; units joined by * are phosphorothioate-linked, units joined directly phosphodiester-linked; [ ] holds rarer units or linkages, { } end groups; capitals alone tell only the bases. d = 2'-deoxy (DNA)
# Experiments:
# DNA synthesis = DNA synthesis by BrdU incorporation normalized to viable cells; type: cell-based; conditions: cell lines that do not undergo significant apoptosis, 100 nM, 20 hr (FIG. 15)
# p53 = assay: BP100-luciferase reporter in several representative cell lines; type: cell-based; conditions: stably transfected cell lines, 20 hr (FIG. 13)
# Procedure: Cells stably transfected with the BP100-luciferase reporter were treated with antisense oligonucleotides at indicated concentrations for 20 hr. Luciferase activity/unit protein was determined and the magnitude of induction was shown compared to cells not treated with oligonucleotides. AS2M4: a 4 bp mismatch control of AS5-2. K: an unrelated oligonucleotide.
# In order to determine whether the p53 protein that accumulates after inhibition of MDM2 is functionally active, a p53-responsive BP100-luciferase reporter plasmid was transfected into several representative cell lines. Stably transfected cells were then treated with AS5-2 or control oligonucleotides. […] The magnitude of p53 transcription activation is consistent with the fact that most of the p53 accumulation occurs in the nucleus, which has a low basal level of p53.
# [1] = mice bearing DLD-1 xenografts
# [2] = test system: human colon cancer DLD-1 xenografts; assay: Tumor growth in nude mice bearing DLD-1 xenografts; type: in vivo
# [3] = mice bearing LS174T xenografts
# [4] = test system: MDM2, p53 and p21 protein levels in LS174T cells; assay: Western blot of MDM2, p53 and p21 in LS174T cells; type: cell-based, human; conditions: up to 500 nM, 24 hr, Lipofectin
# [5] = test system: human colon cancer LS174T xenografts; assay: Tumor growth in nude mice bearing LS174T xenografts
# LS174T cells = assay: LS174T cell growth by trypan blue viability staining; type: cell-based, human; conditions: 72 hr, Lipofectin
# Text: (§1) Chemicals and Reagents. Cell culture media and phosphate-buffered saline (PBS) were obtained from Sigma Chemical Co. (St. Louis, Mo.). Fetal bovine serum (FBS), antibodies against p53 and p21, Lipofectin, trypsin, penicillin-streptomycin, and trypan blue stain were purchased from GIBCO-BRL (Grand Island, N.Y.). The anti-human-MDM2 monoclonal antibody (Chen L. et al., Proc Natl Acad Sci USA, 95: 195-200, 1998; Chen L. et al., Mol. Med. 5: 21-34, 1999) was kindly provided by J. Chen (Moffitt Cancer Center, Tampa, Fla.). Chemotherapeutic agents adriamycin and 5-fluorouracil (5-FU) were obtained from Sigma. […] The MDM2, p53 and p21 levels in cultured cells were analyzed by using the methods described previously (earlier (Chen L. et al., Proc Natl Acad Sci USA, 95: 195-200, 1998; Chen L. et al., Mol. Med. 5: 21-34, 1999; Wang H. et al., Int J. Oncol. 15: 653-660, 1999). In brief, cell lysate containing identical amounts of total protein were fractionated by SDS-PAGE and transferred to Bio-Rad Trans-Blot nitrocellulose membranes (Bio-Rad Laboratories, Hercules, Calif., USA). The nitrocellulose membrane was then incubated with blocking buffer (PBS containing 0.1% Tween 20 and 5% non-fat milk) for 1 hr at room temperature and washed with the washing buffer (PBS containing 0. […]
# DLD-1 cells = assay: DLD-1 cell growth by trypan blue viability staining; type: cell-based, human; conditions: 72 hr, Lipofectin
# Text: as §1
# [6] = test system: MDM2, p53 and p21 protein levels in DLD-1 cells; assay: Western blot of MDM2, p53 and p21 in DLD-1 cells; type: cell-based, human
# Text: (§2) Chemicals and Reagents. Cell culture media and phosphate-buffered saline (PBS) were obtained from Sigma Chemical Co. (St. Louis, Mo.). Fetal bovine serum (FBS), antibodies against p53 and p21, Lipofectin, trypsin, penicillin-streptomycin, and trypan blue stain were purchased from GIBCO-BRL (Grand Island, N.Y.). The anti-human-MDM2 monoclonal antibody (Chen L. et al., Proc Natl Acad Sci USA, 95: 195-200, 1998; Chen L. et al., Mol. Med. 5: 21-34, 1999) was kindly provided by J. Chen (Moffitt Cancer Center, Tampa, Fla.). Chemotherapeutic agents adriamycin and 5-fluorouracil (5-FU) were obtained from Sigma. Natural product topoisomerase I inhibitor 10-hydroxycamptothecin (HCPT) was obtained from the Midwest Co. (Beijing, China) with the purity of the drug being greater than 98% (Zhang R. et al., Cancer Chemother Pharm 41: 257-267, 1998). Cell Culture. The tumor cell lines, LS174T and DLD-1 were obtained from the American Type Culture Collection (Rockville, Md.) and cultured according to their instructions. LS 174T cells were cultured in MEM with 0.1 mM nonessential amino acids and Earle's balanced salt solution containing 10% FBS and DLD-1 cells in RPMI 1640 medium containing 10% FBS. All media included 1% penicillin/streptomycin. […] Cells were incubated with Oligos AS or ASM at various concentrations for 72 hr, in the presence of Lipofectin (7 μg/ml). […] Western Blot Analysis. The MDM2, p53 and p21 levels in cultured cells were analyzed by using the methods described previously (earlier (Chen L. et al., Proc Natl Acad Sci USA, 95: 195-200, 1998; Chen L. et al., Mol. Med. 5: 21-34, 1999; Wang H. et al., Int J. Oncol. 15: 653-660, 1999). In brief, cell lysate containing identical amounts of total protein were fractionated by SDS-PAGE and transferred to Bio-Rad Trans-Blot nitrocellulose membranes (Bio-Rad Laboratories, Hercules, Calif., USA). The nitrocellulose membrane was then incubated with blocking buffer (PBS containing 0.1% Tween 20 and 5% non-fat milk) for 1 hr at room temperature and washed with the washing buffer (PBS containing 0. 1% Tween 20) for 5 min twice. The membrane was incubated with primary (anti-MDM2, anti-p53, or anti-p21) antibody overnight at 4° C. or for 1 hr at room temperature with gentle shaking. The membrane was washed with the washing buffer for 15 min and then twice for 5 min, and then incubated with 1:5000 diluted goat anti-mouse IgG-horse radish peroxidase conjugated antibody (Bio-Rad, Hercules, Calif.) for 1 hr at room temperature. After washing as described above the protein of interest was detected by ECL reagents from Amersham (Arlington Height, Ill.). Results. LS174T Model. In vitro inhibition of MDM2 expression by Oligo AS was shown in a sequence-specific, increasing dose-dependent manner (FIG. 19). […] Control oligonucleotide, Oligo ASM had no effect on MDM2, p53 or p21 protein levels at 500 nM, the highest concentration tested in the study.
# (§3) Following in vitro combination treatment of Oligos and chemotherapeutic agents HCPT, adriamycin, and 5-FU, the protein levels of MDM2, p53 and p21 were determined in DLD-1 cells. Cells were incubated with 200 nM Oligo in the presence of Lipofectin for 24 hr, followed by addition of various concentrations of chemotherapeutic agents and incubation for an additional 24 hr.
# [7] = test system: MDM2, p53 and p21 protein levels in LS174T cells; assay: Western blot of MDM2, p53 and p21 in LS174T cells; type: cell-based, human; conditions: 400 nM Oligo 24 hr
# Text: as §2
# as §3, with “LS174T” for “DLD-1”, “400” for “200”, “for” for “for an”
# [8] = day 3, oligo 20, HCPT 3, 5-FU 10 mg/kg/day
# [9] = day 6, oligo 20, HCPT 3, 5-FU 10 mg/kg/day
# [10] = day 9, oligo 20, HCPT 3, 5-FU 10 mg/kg/day
# [11] = day 12, oligo 20, HCPT 3, 5-FU 10 mg/kg/day
# [12] = day 15, oligo 20, HCPT 3, 5-FU 10 mg/kg/day
substance,measurement,setting,value
"AS2M4: 4 bp mismatch control of AS5-2, 5′-TGACTCTTGTCCTTACTCAC-3′; SEQ ID NO: 26 (DNA dT*dG*dA*dC*dT*dC*dT*dT*dG*dT*dC*dC*dT*dT*dA*dC*dT*dC*dA*dC)",rate of DNA synthesis (BrdU incorporation),DNA synthesis,weaker
same,induction of p53 transcription function,p53,significantly reduced efficiency
"Oligo ASM: mismatched control of Oligo AS, 5′-UGTCACCCTTTTTCATUCAC-3′; SEQ ID NO:50 (chemistry not given here)",Survival Rates of Animals,[1]; day 3,100%
same,Survival Rates of Animals,[1]; day 6,100%
same,Survival Rates of Animals,[1]; day 9,100%
same,Survival Rates of Animals,[1]; day 12,100%
same,Survival Rates of Animals,[1]; day 15,100%
same,Survival Rates of Animals,[1]; day 18,100%
same,Survival Rates of Animals,[1]; day 21,66.7%
same,effect of combination treatment on tumor growth,[2],no significant effect
same,effect on in vivo tumor growth,[2]; 20 mg/kg/day,minimal effect
same,Ratio (%) of % T:C with oligo to % T:C without oligo ([2]/[1] or [3]/[1]),[2]; day 3,82%
same,Growth ratio % T:C,[2]; [8],81.5%
same,Ratio (%) of % T:C with oligo to % T:C without oligo ([2]/[1] or [3]/[1]),[2]; day 6,88%
same,Growth ratio % T:C,[2]; [9],87.5%
same,Ratio (%) of % T:C with oligo to % T:C without oligo ([2]/[1] or [3]/[1]),[2]; day 9,70%
same,Growth ratio % T:C,[2]; [10],79.3%
same,Ratio (%) of % T:C with oligo to % T:C without oligo ([2]/[1] or [3]/[1]),[2]; day 12,66%
same,Growth ratio % T:C,[2]; [11],66.4%
same,Ratio (%) of % T:C with oligo to % T:C without oligo ([2]/[1] or [3]/[1]),[2]; day 15,79%
same,Growth ratio % T:C,[2]; [12],79.3%
same,Ratio (%) of % T:C with oligo to % T:C without oligo ([2]/[1] or [3]/[1]),[2]; day 18,81%
same,Growth ratio % T:C,"[2]; day 18, oligo 20, HCPT 3, 5-FU 10 mg/kg/day",81.0%
same,Ratio (%) of % T:C with oligo to % T:C without oligo ([2]/[1] or [3]/[1]),[2]; day 21,76%
same,Growth ratio % T:C,"[2]; day 21 (end of experiment), oligo 20, HCPT 3, 5-FU 10 mg/kg/day",76.0%
same,Survival Rates of Animals,[3]; day 3,100%
same,Survival Rates of Animals,[3]; day 6,100%
same,Survival Rates of Animals,[3]; day 9,100%
same,Survival Rates of Animals,[3]; day 12,100%
same,Survival Rates of Animals,[3]; day 15,100%
same,Survival Rates of Animals,[3]; day 18,100%
same,"effect on MDM2, p53 and p21 protein levels",[4],no effect
same,effect of combination treatment on tumor growth,[5],no significant effect
same,xenograft pathology (tumor histology),[5],indistinguishable histologically
same,effect on in vivo tumor growth,[5]; daily ip dose 20 mg/kg,minimal effect
same,Ratio (%) of % T:C with oligo to % T:C without oligo ([2]/[1] or [3]/[1]),[5]; day 3,99%
same,Growth ratio % T:C (mean tumor mass of treated group vs saline control),[5]; [8],98.6%
same,Ratio (%) of % T:C with oligo to % T:C without oligo ([2]/[1] or [3]/[1]),[5]; day 6,105%
same,Growth ratio % T:C (mean tumor mass of treated group vs saline control),[5]; [9],104.9%
same,Ratio (%) of % T:C with oligo to % T:C without oligo ([2]/[1] or [3]/[1]),[5]; day 9,70%
same,Growth ratio % T:C (mean tumor mass of treated group vs saline control),[5]; [10],69.7%
same,Ratio (%) of % T:C with oligo to % T:C without oligo ([2]/[1] or [3]/[1]),[5]; day 12,82%
same,Growth ratio % T:C (mean tumor mass of treated group vs saline control),[5]; [11],81.5%
same,Ratio (%) of % T:C with oligo to % T:C without oligo ([2]/[1] or [3]/[1]),[5]; day 15,79%
same,Growth ratio % T:C (mean tumor mass of treated group vs saline control),[5]; [12],79.4%
same,Ratio (%) of % T:C with oligo to % T:C without oligo ([2]/[1] or [3]/[1]),[5]; day 18,72%
same,Growth ratio % T:C (mean tumor mass of treated group vs saline control),"[5]; day 18 (end of experiment), oligo 20, HCPT 3, 5-FU 10 mg/kg/day",73.3%
same,Ratio (%) of % T:C with oligo to % T:C without oligo ([2]/[1] or [3]/[1]),"[5]; day 18, listed as ASM",73%
same,effect on tumor cell growth,LS174T cells,no significant effect
same,effect on tumor cell growth,DLD-1 cells,no significant effect
same,"effect on MDM2, p53 or p21 protein levels",[6],no effect
same,"MDM2, p53 and p21 protein levels, oligo pre-treatment then 5-FU","[6]; 200 nM Oligo 24 hr, then 5-FU 24 hr",minimal effect
same,"MDM2 and p21 protein levels, oligo pre-treatment then HCPT","[6]; 200 nM Oligo 24 hr, then HCPT 24 hr",minimal effect
same,"MDM2 and p21 protein levels, oligo pre-treatment then adriamycin","[6]; 200 nM Oligo 24 hr, then adriamycin 24 hr",minimal effect
same,"MDM2, p53 and p21 protein levels, oligo pre-treatment then 5-FU",[7]; then 5-FU 24 hr,minimal effect
same,"MDM2, p53 and p21 protein levels, oligo pre-treatment then HCPT",[7]; then HCPT 24 hr,minimal effect
same,"MDM2, p53 and p21 protein levels, oligo pre-treatment then adriamycin",[7]; then adriamycin 24 hr,minimal effect
